The assay deals with T1, Hsp90 alpha (Homo sapiens, UniProt P07900).
T1 construct: gene HSP90AA1; Hsp90alpha recombinant enzyme (BPS Bioscience Hsp90α assay kit, Cat #50294)
The experiment in a line: fluorescence polarization competition with FITC-labeled geldanamycin. The assay is classed as binding. (Polarisation of emitted light reports the rotation of a fluorescent probe.)

In general, IC50 refers to the concentration that gives 50% inhibition. `CC(C)c1cc(-c2nnc(O)n2-c2ccc3c(ccn3CCNC(=O)CCCC[C@@H]3SC[C@@H]4NC(=O)N[C@@H]43)c2)c(O)cc1O` [STA-12-7191] yielded an IC50 of 62 nM.

Values taken from article PMC4074815, “An Impermeant Ganetespib Analog Inhibits Extracellular Hsp90-Mediated Cancer Cell Migration that Involves Lysyl Oxidase 2-like Protein” (Cancers, 2014).
